# From patent publication US8445674B2, “Heterocyclyl compounds” (Hoffmann-La Roche Inc, priority 2009, dated 2013)
# Target: T1, human chemokine receptor 2 isoform B (Homo sapiens, UniProt P41597)
# T1 construct: host or cells: CHOK1-CCR2B-A5 cells (CHO-K1)
# T1 sequence (P41597 1-360 isoform P41597-2): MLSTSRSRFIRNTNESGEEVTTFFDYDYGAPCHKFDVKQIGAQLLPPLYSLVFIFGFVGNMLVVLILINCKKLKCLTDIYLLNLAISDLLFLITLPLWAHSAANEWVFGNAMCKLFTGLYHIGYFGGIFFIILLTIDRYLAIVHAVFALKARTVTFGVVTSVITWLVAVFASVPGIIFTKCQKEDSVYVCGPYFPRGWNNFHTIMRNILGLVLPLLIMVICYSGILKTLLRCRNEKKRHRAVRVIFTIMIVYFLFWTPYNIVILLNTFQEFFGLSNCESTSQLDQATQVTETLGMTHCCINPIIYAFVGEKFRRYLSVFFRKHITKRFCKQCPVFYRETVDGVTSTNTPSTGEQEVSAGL
# Experiment: Calcium mobilization assay (FLIPR, antagonist activity against MCP-1)
# Format: cell-based
# Conditions: Ca mobilisation assay, CHOK1-CCR2B-A5 cells, inhibition of calcium increase induced by 20 nM MCP-1
# Procedure, shortened: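 CHOK1 cells stably overexpressing human CCR2B, loaded with 4 μM Fluo-4 for 2 h at 30° C, compounds added and agonist signal read by FLIPR for 80 s. After 20-30 min at 30° C, 20 nM MCP-1 was added and fluorescence read again. IC50 is 50% inhibition of specific calcium increase (max minus basal).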
row,SMILES,IC50
1,"CC1CCN(C(=O)CCN2CCN(C(=O)/C=C/c3ccc(Cl)c(Cl)c3)CCC2=O)CC1O (racemic) [Example 71, (rac)-1-[(E)-3-(3,4-Dichloro-phenyl)-acryloyl]-4-[3-(3-hydroxy-4-methyl-piperidin-1-yl)-3-oxo-propyl]-[1,4]diazepan-5-one]",681 nM
2,"C[C@H]1C(=O)N(C[C@H](O)CC(=O)N2CCC3(CC3)[C@H](O)C2)CCN1C(=O)Nc1ccc(C(F)(F)F)c(Cl)c1 [Example 43, (S)-4-[(R)-2-Hydroxy-4-((S)-4-hydroxy-6-aza-spiro[2.5]oct-6-yl)-4-oxo-butyl]-2-methyl-3-oxo-piperazine-1-carboxylic acid (3-chloro-4-trifluoromethyl-phenyl)-amide]",4 nM
3,"C[C@H]1C(=O)N(CCC(=O)N2CCCC(O)C2)CCN1C(=O)Nc1ccc(Cl)c(Cl)c1 (stereo partly drawn) [Example 17, (S)-4-[3-((R,S)-3-Hydroxy-piperidin-1-yl)-3-oxo-propyl]-2-methyl-3-oxo-piperazine-1-carboxylic acid (3,4-dichloro-phenyl)-amide]",3170 nM
4,"C[C@H]1C(=O)N([C@H](CO)CCC(=O)N2CCC3(CC3)[C@H](O)C2)CCN1C(=O)N(C)c1ccc(OC(F)(F)F)c(Cl)c1 [Example 57, (S)-4-[(S)-4-((S)-4-Hydroxy-6-aza-spiro[2.5]oct-6-yl)-1-hydroxymethyl-4-oxo-butyl]-2-methyl-3-oxo-piperazine-1-carboxylic acid (3-chloro-4-trifluoromethoxy-phenyl)-methyl-amide]",2570 nM
5,"C[C@H]1C(=O)N(CCCC(=O)N2CCC3(CC3)[C@H](O)C2)CCN1C(=O)Nc1ccc(OC(F)(F)F)cc1 [Example 30, (S)-4-[4-((S)-4-Hydroxy-6-aza-spiro[2.5]oct-6-yl)-4-oxo-butyl]-2-methyl-3-oxo-piperazine-1-carboxylic acid (4-trifluoromethoxy-phenyl)-amide]",20.4 nM
6,"C[C@H]1C(=O)N(CC(O)CC(=O)N2CCC3(CC3)[C@H](O)C2)CCN1C(=O)Nc1ccc(Cl)c(Cl)c1 (stereo partly drawn) [Example 40, (S)-4-[(R,S)-2-Hydroxy-4-((S)-4-hydroxy-6-aza-spiro[2.5]oct-6-yl)-4-oxo-butyl]-2-methyl-3-oxo-piperazine-1-carboxylic acid (3,4-dichloro-phenyl)-amide]",7.6 nM
7,"O=C(/C=C/c1cccc(Cl)c1)N1CCC(=O)N(C(CO)CC(=O)N2CCC3(CC3)[C@H](O)C2)CC1 (stereo partly drawn) [Example 11, 1-[(E)-3-(3-Chloro-phenyl)-acryloyl]-4-[(R,S)-3-((S)-4-hydroxy-6-aza-spiro[2.5]oct-6-yl)-1-hydroxymethyl-3-oxo-propyl]-[1,4]diazepan-5-one]",464 nM
8,"CC1(CO)CCCCN1C(=O)CCN1CCN(C(=O)/C=C/c2ccc(Cl)c(Cl)c2)CCC1=O (racemic) [Example 75, (rac)-1-[(E)-3-(3,4-Dichloro-phenyl)-acryloyl]-4-[3-(2-hydroxymethyl-2-methyl-piperidin-1-yl)-3-oxo-propyl]-[1,4]diazepan-5-one]",969 nM
9,"C[C@H]1C(=O)N(C[C@@H](O)CC(=O)N2CCC3(CC3)[C@H](O)C2)CCN1C(=O)Nc1ccc(C(F)(F)F)c(Cl)c1 [Example 42, (S)-4-[(S)-2-Hydroxy-4-((S)-4-hydroxy-6-aza-spiro[2.5]oct-6-yl)-4-oxo-butyl]-2-methyl-3-oxo-piperazine-1-carboxylic acid (3-chloro-4-trifluoromethyl-phenyl)-amide]",8.2 nM
10,"C[C@H]1C(=O)N(CC(O)CC(=O)N2CCC3(CC3)[C@H](O)C2)CCN1C(=O)Nc1ccc(C(F)(F)F)c(C(F)(F)F)c1 (stereo partly drawn) [Example 47, (S)-4-[(R,S)-2-Hydroxy-4-((S)-4-hydroxy-6-aza-spiro[2.5]oct-6-yl)-4-oxo-butyl]-2-methyl-3-oxo-piperazine-1-carboxylic acid (3,4-bis-trifluoromethyl-phenyl)-amide]",5.4 nM
11,"C[C@H]1C(=O)N(CCCC(=O)N2CCC3(CC3)[C@H](O)C2)CCN1C(=O)Nc1cccc(OC(F)(F)F)c1 [Example 31, (S)-4-[4-((S)-4-Hydroxy-6-aza-spiro[2.5]oct-6-yl)-4-oxo-butyl]-2-methyl-3-oxo-piperazine-1-carboxylic acid (3-trifluoromethoxy-phenyl)-amide]",51 nM
12,"C[C@H]1C(=O)N(CC(O)CC(=O)N2CCC3(CC3)[C@H](O)C2)CCN1C(=O)Nc1ccc(C(F)(F)F)c(Cl)c1 (stereo partly drawn) [Example 41, (S)-4-[(R,S)-2-Hydroxy-4-((S)-4-hydroxy-6-aza-spiro[2.5]oct-6-yl)-4-oxo-butyl]-2-methyl-3-oxo-piperazine-1-carboxylic acid (3-chloro-4-trifluoromethyl-phenyl)-amide]",5.6 nM
13,"C[C@H]1C(=O)N(CCC(=O)N2CCC(C(F)(F)F)CC2)CCN1C(=O)Nc1ccc(Cl)c(Cl)c1 [Example 24, (S)-2-Methyl-3-oxo-4-[3-oxo-3-(4-trifluoromethyl-piperidin-1-yl)-propyl]-piperazine-1-carboxylic acid (3,4-dichloro-phenyl)-amide]",3170 nM
14,"C[C@@H]1CN(CCCC(=O)N2CCC3(CC3)[C@H](O)C2)C(=O)CCN1c1ccc(C(F)(F)F)c(Cl)c1 [Example 66, (R)-1-(3-Chloro-4-trifluoromethyl-phenyl)-4-[4-((S)-4-hydroxy-6-aza-spiro[2.5]oct-6-yl)-4-oxo-butyl]-2-methyl-[1,4]diazepan-5-one]",109 nM

# Continued, values first:
row,IC50,SMILES
1,18 nM,"C[C@@H]1C(=O)N(CCCC(=O)N2CCC3(CC3)[C@H](O)C2)[C@@H](C(N)=O)CN1C(=O)Nc1ccc(C(F)(F)F)c(Cl)c1 [Example 150, (3R,6R)-4-[4-((S)-4-Hydroxy-6-aza-spiro[2.5]oct-6-yl)-4-oxo-butyl]-6-methyl-5-oxo-piperazine-1,3-dicarboxylic acid 3-amide 1-[(3-chloro-4-trifluoromethyl-phenyl)-amide]]"
2,13.1 nM,"C[C@H]1C(=O)N(C[C@@H](O)CC(=O)N2CCC3(CC3)[C@H](O)C2)CCN1c1ccc(C(F)(F)F)c(Cl)c1 [Example 131, (S)-4-(3-Chloro-4-trifluoromethyl-phenyl)-1-[(S)-2-hydroxy-4-((S)-4-hydroxy-6-aza-spiro[2.5]oct-6-yl)-4-oxo-butyl]-3-methyl-piperazin-2-one]"
3,47.9 nM,"CC(C)(C)C1(O)CCN(C(=O)CCN2CCN(C(=O)/C=C/c3ccc(Cl)c(Cl)c3)CCC2=O)CC1 [Example 84, 4-[3-(4-tert-Butyl-4-hydroxy-piperidin-1-yl)-3-oxo-propyl]-1-[(E)-3-(3,4-dichloro-phenyl)-acryloyl]-[1,4]diazepan-5-one]"
4,20.2 nM,"O=C1CCN(C(=O)Nc2ccc(Cl)c(Cl)c2)CCN1CCCC(=O)N1CCC2(CC2)[C@H](O)C1 [Example 117, 4-[4-((S)-4-Hydroxy-6-aza-spiro[2.5]oct-6-yl)-4-oxo-butyl]-5-oxo-[1,4]diazepane-1-carboxylic acid (3,4-dichloro-phenyl)-amide]"
5,952 nM,"O=C(/C=C/c1ccc(Cl)c(Cl)c1)N1CCC(=O)N(CCC(=O)N2CCC(N3CCNC3=O)CC2)CC1 [Example 92, 1-[(E)-3-(3,4-Dichloro-phenyl)-acryloyl]-4-{3-oxo-3-[4-(2-oxo-imidazolidin-1-yl)-piperidin-1-yl]-propyl}-[1,4]diazepan-5-one]"
6,1290 nM,"O=C1CCN(C(=O)Nc2cccc(Cl)c2)CCN1CCCC(=O)N1CCC2(CC2)[C@H](O)C1 [Example 116, 4-[4-((S)-4-Hydroxy-6-aza-spiro[2.5]oct-6-yl)-4-oxo-butyl]-5-oxo-[1,4]diazepane-1-carboxylic acid (3-chloro-phenyl)-amide]"
7,4650 nM,"C[C@H]1C(=O)N(CCCC(=O)N2CCC(CO)CC2)CCN1C(=O)Nc1cccc(Cl)c1 [Example 109, (S)-4-[4-(4-Hydroxymethyl-piperidin-1-yl)-4-oxo-butyl]-2-methyl-3-oxo-piperazine-1-carboxylic acid (3-chloro-phenyl)-amide]"
8,3210 nM,"O=C(/C=C/c1ccc(Cl)c(Cl)c1)N1CCC(=O)N(CC(=O)N2CCC3(CCCC3)CC2)CC1 [Example 96, 4-[2-(8-Aza-spiro[4.5]dec-8-yl)-2-oxo-ethyl]-1-[(E)-3-(3,4-dichloro-phenyl)-acryloyl]-[1,4]diazepan-5-one]"
9,500 nM,"C[C@H]1C(=O)N([C@@H](CCC(=O)N2CCC3(CC3)[C@H](O)C2)C(N)=O)CCN1C(=O)Nc1ccc(C(F)(F)F)c(Cl)c1 [Example 141, (S)-4-[(S)-1-Carbamoyl-4-((S)-4-hydroxy-6-aza-spiro[2.5]oct-6-yl)-4-oxo-butyl]-2-methyl-3-oxo-piperazine-1-carboxylic acid (3-chloro-4-trifluoromethyl-phenyl)-amide]"
10,150 nM,"O=C(/C=C/c1ccc(Cl)c(Cl)c1)N1CCC(=O)N(CC(=O)N2CCCCC2)CC1 [Example 95, 1-[(E)-3-(3,4-Dichloro-phenyl)-acryloyl]-4-(2-oxo-2-piperidin-1-yl-ethyl)-[1,4]diazepan-5-one]"
11,1750 nM,"COC(=O)NC1CCN(C(=O)CCN2CCN(C(=O)/C=C/c3ccc(Cl)c(Cl)c3)CCC2=O)CC1 [Example 88, [1-(3-{4-[(E)-3-(3,4-Dichloro-phenyl)-acryloyl]-7-oxo-[1,4]diazepan-1-yl}-propionyl)-piperidin-4-yl]-carbamic acid methyl ester]"
